{"source": "paper PMC3787017", "about": "“Relative Contributions of Norepinephrine and Serotonin Transporters to Antinociceptive Synergy between Monoamine Reuptake Inhibitors and Morphine in the Rat Formalin Model” (PLoS ONE, 2013)", "key": {"[1]": {"assay": "Plasma and brain unbound concentrations by LC/MS/MS", "conditions": "rat, 75 min post-dosing", "description": "Plasma and brain concentrations of reuptake inhibitors were determined by LC/MS/MS. Samples (10–20 µL) were injected in a Hypurity C18 column (50×2.1 mm; 3 µM) with a flow rate of 0.5 mL/min. […] Various gradient elutions were used and the mass spectrometers (Sciex API5000 and API4000; Applied Biosystems, Foster City, CA) were operated in positive ion multiple reaction monitoring mode.\nFor the pharmacokinetic and bioanalytical analyses, free plasma and free brain concentrations were calculated using the in vitro unbound fractions in rat plasma and brain homogenates, respectively."}, "rat formalin model [2]": {"system": "rat formalin model"}, "SERT [3]": {"target": "T1, SERT (Rattus norvegicus, UniProt P31652)", "T1 sequence (P31652 whole entry)": "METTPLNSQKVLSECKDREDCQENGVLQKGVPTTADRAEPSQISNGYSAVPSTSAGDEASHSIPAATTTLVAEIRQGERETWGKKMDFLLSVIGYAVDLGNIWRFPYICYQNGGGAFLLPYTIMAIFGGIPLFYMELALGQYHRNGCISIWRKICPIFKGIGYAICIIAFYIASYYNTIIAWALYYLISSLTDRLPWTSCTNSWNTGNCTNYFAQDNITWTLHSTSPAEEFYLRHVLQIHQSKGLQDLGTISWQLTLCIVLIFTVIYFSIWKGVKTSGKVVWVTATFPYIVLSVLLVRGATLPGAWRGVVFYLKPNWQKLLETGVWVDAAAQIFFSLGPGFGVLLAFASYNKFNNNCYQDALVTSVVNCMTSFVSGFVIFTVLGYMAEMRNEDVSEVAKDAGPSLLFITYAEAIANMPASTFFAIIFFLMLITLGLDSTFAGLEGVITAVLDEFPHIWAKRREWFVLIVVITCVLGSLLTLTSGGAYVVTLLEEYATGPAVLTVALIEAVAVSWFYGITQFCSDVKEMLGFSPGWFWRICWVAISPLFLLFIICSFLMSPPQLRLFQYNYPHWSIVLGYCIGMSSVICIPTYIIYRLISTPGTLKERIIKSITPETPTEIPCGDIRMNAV", "assay": "in vivo", "conditions": "ip, read-out: SERT occupancy ex vivo", "description": "(§1) Ex vivo occupancy studies were performed similarly to those described previously [31]. At a single time point at the conclusion of phase 2A (75 min post-dose), a 5 mm^2 piece of frontal cortex was dissected, frozen rapidly, and stored at −80°C until use. Cortical crude homogenates were prepared and the initial rates (vi(vehicle) or vi, respectively) of [^3H]-citalopram (SERT) or [^3H]-nisoxetine (NET) binding determined over a 3-min time course. The % NET or SERT transporter occupancy for compound-dosed animals was calculated using the following equation: 100*(1−vi)/average vi(vehicle)."}, "NET": {"target": "NET (Rattus norvegicus, UniProt Q63380)", "sequence (Q63380 1-617)": "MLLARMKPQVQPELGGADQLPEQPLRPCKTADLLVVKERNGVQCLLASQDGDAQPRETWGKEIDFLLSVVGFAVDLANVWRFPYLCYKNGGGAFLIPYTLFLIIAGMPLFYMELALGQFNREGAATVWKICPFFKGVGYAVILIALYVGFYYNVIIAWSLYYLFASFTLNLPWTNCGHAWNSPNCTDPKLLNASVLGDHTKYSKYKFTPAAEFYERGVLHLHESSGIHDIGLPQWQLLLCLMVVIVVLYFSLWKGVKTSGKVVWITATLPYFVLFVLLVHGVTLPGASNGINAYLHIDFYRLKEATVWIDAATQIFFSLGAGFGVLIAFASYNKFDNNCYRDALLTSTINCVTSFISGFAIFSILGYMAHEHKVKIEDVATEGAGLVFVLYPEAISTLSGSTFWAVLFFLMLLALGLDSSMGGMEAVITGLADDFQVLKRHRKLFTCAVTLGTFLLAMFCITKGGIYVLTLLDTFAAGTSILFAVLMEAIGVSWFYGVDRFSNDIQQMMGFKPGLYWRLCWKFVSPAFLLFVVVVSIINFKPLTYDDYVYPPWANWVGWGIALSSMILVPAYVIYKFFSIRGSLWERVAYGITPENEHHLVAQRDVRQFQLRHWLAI", "assay": "in vivo", "conditions": "ip, read-out: NET occupancy ex vivo", "description": "as §1"}, "rat formalin model [4]": {"system": "rat formalin model", "assay": "animal or person", "conditions": "read-out: ED50, antinociception, drug alone"}, "rat RotaRod test": {"system": "rat RotaRod test", "conditions": "morphine 3 mg/kg SC alone, 60 min post-dose; statistically significant"}, "[5]": {"assay": "Protein binding in rat plasma, equilibrium dialysis", "assay_type": "in vitro ADME", "conditions": "equilibrium dialysis 5 hours 37°C, Theravance, Inc., unpublished data", "description": "(§2) The in vitro unbound fraction of reuptake inhibitors in rat brain homogenates (5 µM) and in rat plasma protein (1 µM) was evaluated using equilibrium dialysis using the HT-Dialysis device (Gayles-Ferry, CT). Brain homogenate or plasma was spiked with test compounds and dialyzed against blank PBS for 5 hours at 37°C. The matrices from both sides of the dialysis membranes were equalized and extracted with acetonitrile. Unbound fractions for each compound were calculated as the ratio of peak areas from the PBS side to peak areas from the tissue or plasma side. Peak areas were corrected for dilution of the tissue made prior to spiking compound. Quantification was via LC/MS/MS."}, "SERT [6]": {"system": "SERT", "conditions": "therapeutic dose of 60 mg; cited from earlier work"}, "[7]": {"assay": "Binding in rat brain homogenates, equilibrium dialysis", "assay_type": "in vitro ADME", "conditions": "brain homogenate, equilibrium dialysis 5 hours 37°C, Theravance, Inc., unpublished data", "description": "as §2"}, "SERT [8]": {"target": "T1, SERT", "conditions": "summary over 3 and 10 mg/kg IP (discussion)", "description": "as §1"}, "[9]": {"conditions": "10 mg/kg IP, drug alone, mean ± SEM"}}, "note": "Read-outs that look alike come from different tables or passages of the source.", "data": [{"compound": "CCOc1ccccc1O[C@@H](c1ccccc1)[C@@H]1CNCCO1", "note": "[esreboxetine]", "values": [{"measurement": "concentration at 75 min", "setting": "[1]; brain, intraperitoneal, 10 mg/kg, [Brain]unbound, esreboxetine 10 mg/kg, − fluoxetine − morphine", "value": "20.4 ± 14.4", "unit": "ng/g"}, {"measurement": "concentration at 75 min", "setting": "[1]; brain, intraperitoneal, [Brain]unbound, esreboxetine 10 mg/kg + fluoxetine 1 + morphine 1 mg/kg", "value": "25 ± 5.8", "unit": "ng/g"}, {"measurement": "concentration at 75 min", "setting": "[1]; brain, intraperitoneal, [Brain]unbound, esreboxetine 10 mg/kg + morphine 1 mg/kg", "value": "12.7 ± 9.9", "unit": "ng/g"}, {"measurement": "concentration at 75 min", "setting": "[1]; plasma, intraperitoneal, 10 mg/kg, [Plasma]unbound, esreboxetine 10 mg/kg, − fluoxetine − morphine", "value": "33.4 ± 12.2", "unit": "ng/mL"}, {"measurement": "concentration at 75 min", "setting": "[1]; plasma, intraperitoneal, [Plasma]unbound, esreboxetine 10 mg/kg + fluoxetine 1 + morphine 1 mg/kg", "value": "31.2 ± 8.6", "unit": "ng/mL"}, {"measurement": "concentration at 75 min", "setting": "[1]; plasma, intraperitoneal, [Plasma]unbound, esreboxetine 10 mg/kg + morphine 1 mg/kg", "value": "21 ± 17.7", "unit": "ng/mL"}, {"measurement": "inhibition of flinching", "setting": "rat formalin model [2]; rat, in vivo", "value": "17±9", "unit": "%"}, {"measurement": "receptor occupancy at 10 mg/kg", "setting": "SERT [3]", "value": "3 ± 5", "unit": "%"}, {"measurement": "receptor occupancy at 10 mg/kg", "setting": "NET", "value": "82 ± 5", "unit": "%"}]}, {"compound": "CN1CC[C@]23c4c5ccc(O)c4O[C@H]2[C@@H](O)C=C[C@H]3[C@H]1C5", "note": "[morphine]", "values": [{"measurement": "ED50", "setting": "rat formalin model [4]", "value": 2.3, "unit": "mg/kg"}, {"measurement": "inhibition of flinching", "setting": "rat formalin model [2]; 1 mg/kg SC, alone, mean ± SEM", "value": "18±5", "unit": "%"}, {"measurement": "inhibition of flinching (decrease in nociceptive behavior)", "setting": "rat formalin model [2]; 3 mg/kg SC, alone, mean ± SEM", "value": "77%±6"}, {"measurement": "reduction in walking time", "setting": "rat RotaRod test", "value": "65±12", "unit": "%"}]}, {"compound": "CNCC[C@H](Oc1cccc2ccccc12)c1cccs1", "note": "[duloxetine]", "values": [{"measurement": "concentration at 75 min", "setting": "[1]; brain, intraperitoneal, 5 mg/kg, [Brain]unbound, duloxetine 5 mg/kg, − ondansetron − morphine", "value": "13 ± 1.5", "unit": "ng/g"}, {"measurement": "concentration at 75 min", "setting": "[1]; brain, intraperitoneal, [Brain]unbound, duloxetine 5 mg/kg + ondansetron 3 + morphine 1 mg/kg", "value": "16.5 ± 4.1", "unit": "ng/g"}, {"measurement": "concentration at 75 min", "setting": "[1]; plasma, intraperitoneal, 5 mg/kg, [Plasma]unbound, duloxetine 5 mg/kg, − ondansetron − morphine", "value": "4.98 ± 1.4", "unit": "ng/mL"}, {"measurement": "concentration at 75 min", "setting": "[1]; plasma, intraperitoneal, [Plasma]unbound, duloxetine 5 mg/kg + ondansetron 3 + morphine 1 mg/kg", "value": "4.55 ± 0.7", "unit": "ng/mL"}, {"measurement": "fraction unbound at 5 h, 1 µM", "setting": "[5]", "value": 0.031}, {"measurement": "ED50", "setting": "rat formalin model [4]", "value": 10.9, "unit": "mg/kg"}, {"measurement": "occupancy of SERT by positron emission tomography", "setting": "SERT [6]", "value": "near-maximal occupancy"}, {"measurement": "inhibition of flinching", "setting": "rat formalin model [2]; 5 mg/kg IP, drug alone, mean ± SEM", "value": "19±12", "unit": "%"}, {"measurement": "interaction with morphine at higher doses", "setting": "rat formalin model [2]; higher doses of duloxetine, antinociceptive in the absence of morphine, data not shown", "value": "exhibited additivity with morphine"}, {"measurement": "fraction unbound at 5 h, 5 µM", "setting": "[7]", "value": 0.007}]}, {"compound": "CNCCC(Oc1ccc(C(F)(F)F)cc1)c1ccccc1", "note": "(stereo not shown) [fluoxetine]", "values": [{"measurement": "fraction unbound at 5 h, 1 µM", "setting": "[5]", "value": 0.067}, {"measurement": "inhibition of flinching", "setting": "rat formalin model [2]; [9]", "value": "9±4", "unit": "%"}, {"measurement": "fraction unbound at 5 h, 5 µM", "setting": "[7]", "value": 0.0045}]}, {"compound": "C=CCN1CC[C@]23c4c5ccc(O)c4O[C@H]2C(=O)CC[C@@]3(O)[C@H]1C5", "note": "[naloxone]", "values": [{"measurement": "effect on atomoxetine-induced antinociception", "setting": "rat formalin model [2]; naloxone 5 mg/kg IP, atomoxetine 10 and 30 mg/kg IP", "value": "failed to attenuate"}, {"measurement": "effect on morphine-induced antinociception", "setting": "rat formalin model [2]; naloxone 5 mg/kg IP, morphine 3 mg/kg, p<0.001", "value": "effectively blocked"}]}, {"compound": "CNCC[C@@H](Oc1ccccc1C)c1ccccc1", "note": "[atomoxetine]", "values": [{"measurement": "concentration at 75 min", "setting": "[1]; in vivo, 10 mg/kg, [Brain]unbound, atomoxetine 10 mg/kg, − morphine, mean ± SD", "value": "58.2 ± 10.9", "unit": "ng/g"}, {"measurement": "concentration at 75 min", "setting": "[1]; in vivo, 10 mg/kg, [Plasma]unbound, atomoxetine 10 mg/kg, − morphine, mean ± SD", "value": "50.9 ± 5.8", "unit": "ng/mL"}, {"measurement": "concentration at 75 min", "setting": "[1]; in vivo, [Brain]unbound, atomoxetine 10 mg/kg + morphine 3 mg/kg", "value": "52.6 ± 14.4", "unit": "ng/g"}, {"measurement": "concentration at 75 min", "setting": "[1]; in vivo, [Plasma]unbound, atomoxetine 10 mg/kg + morphine 3 mg/kg", "value": "57.9 ± 12.5", "unit": "ng/mL"}, {"measurement": "fraction unbound at 5 h, 1 µM", "setting": "[5]", "value": 0.18}, {"measurement": "ED50", "setting": "rat formalin model [4]", "value": 27.8, "unit": "mg/kg"}, {"measurement": "SERT occupancy at doses that exhibited synergy with morphine", "setting": "SERT [8]", "value": "35 to 64", "unit": "%"}, {"measurement": "inhibition of flinching", "setting": "rat formalin model [2]; 3 mg/kg IP, drug alone, mean ± SEM", "value": "4±11", "unit": "%"}, {"measurement": "inhibition of flinching", "setting": "rat formalin model [2]; [9]", "value": "19±6", "unit": "%"}, {"measurement": "receptor occupancy at 3 mg/kg", "setting": "SERT [3]", "value": "35 ± 9", "unit": "%"}, {"measurement": "receptor occupancy at 10 mg/kg", "setting": "SERT [3]", "value": "64 ± 5", "unit": "%"}, {"measurement": "fraction unbound at 5 h, 5 µM", "setting": "[7]", "value": 0.021}]}, {"compound": "Cc1nccn1CC1CCc2c(c3ccccc3n2C)C1=O", "note": "(stereo not shown) [ondansetron]", "values": [{"measurement": "antinociceptive activity, alone", "setting": "rat formalin model [2]; rat, in vivo", "value": "did not exhibit antinociceptive activity"}, {"measurement": "effect on antinociceptive response to duloxetine and morphine", "setting": "rat formalin model [2]; rat, in vivo", "value": "potentiated the antinociceptive response"}, {"measurement": "effect on antinociceptive response to fluoxetine and morphine", "setting": "rat formalin model [2]; rat, in vivo", "value": "failed to potentiate the antinociceptive response"}]}]}
